For test [1], the target named is T1, S-phase kinase associated protein 2 (Skp2) (Homo sapiens, UniProt P61024+Q13309).
T1 construct: GST-Skp2/Skp1; with Skp1; Cks1 (His6-Cks1)
Nature of the test: HTRF Skp2/Skp1-Cks1 binding inhibition assay; also CETSA of Skp2 in SGC-7901 cells.

The target in test [2] is T1, S-phase kinase associated protein 2 (Skp2). The experiment in a line: HTRF Skp2/Skp1-Cks1 binding inhibition assay.

T1 sequence (Q13309 whole entry): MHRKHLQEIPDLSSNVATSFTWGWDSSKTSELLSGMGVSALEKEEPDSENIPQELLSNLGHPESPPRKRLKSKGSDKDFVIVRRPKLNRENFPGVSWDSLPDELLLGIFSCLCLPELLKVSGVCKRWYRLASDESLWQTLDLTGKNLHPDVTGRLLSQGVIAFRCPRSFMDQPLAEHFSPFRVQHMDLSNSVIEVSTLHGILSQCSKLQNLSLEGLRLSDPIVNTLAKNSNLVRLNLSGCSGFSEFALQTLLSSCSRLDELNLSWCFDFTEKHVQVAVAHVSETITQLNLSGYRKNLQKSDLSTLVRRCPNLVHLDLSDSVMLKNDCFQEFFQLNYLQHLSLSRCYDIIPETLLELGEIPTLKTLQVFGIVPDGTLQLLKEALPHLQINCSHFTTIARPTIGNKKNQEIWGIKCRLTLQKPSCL
T1 sequence (P61024 2-79): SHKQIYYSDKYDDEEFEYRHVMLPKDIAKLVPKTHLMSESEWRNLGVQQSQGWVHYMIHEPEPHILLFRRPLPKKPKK
T1 sequence (P63208 2-163 partner): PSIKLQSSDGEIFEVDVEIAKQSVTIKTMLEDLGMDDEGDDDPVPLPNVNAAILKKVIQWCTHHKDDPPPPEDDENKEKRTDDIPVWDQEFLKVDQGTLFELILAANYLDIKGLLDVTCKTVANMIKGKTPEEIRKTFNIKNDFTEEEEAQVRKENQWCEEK

The compound `C=CC(=O)Nc1cccc(-c2nnc(SCc3ccccc3)n2C)c1` [SYK-031] had an IC50 in test [1] of 2.14 ± 0.76 µM.
For the compound `Cc1ccc(S(=O)(=O)Nc2cccc3cccnc23)cc1` [Skp2-2], the half-inhibitory concentration (IC50) in test [1] is 27.8 ± 1.44 µM.
`COC(=O)c1ccc(CCc2cc(O)ccc2O)cc1` [Skp2-1, NSC681152] returned an IC50 in test [2] of 58.7 ± 1.62 µM.
